Holding throughout (assay): NCI tumour cell line growth inhibition, 48 h
The subject of assay [1] is HCT-116.
Assay [2] has as its system UACC-62.
Assay [3] has as its system OVCAR-8.
Assay [4] relates to NCI-H460.
Assay [5] relates to A498.
The test system of assay [6] is HOP-62.
Assay [7] deals with SK-MEL-2.
Assay [8] has as its system LOX IMVI.
In assay [9] the test system is HL-60.
The subject of assay [10] is OVCAR-3.
Assay [11] has as its system IGROV-1.
Assay [12] relates to A549.
Assay [13] has as its system ACHN.
Assay [14] concerns M19-MEL.
The test system of assay [15] is SNB-75.
For assay [16], the system named is T47D.
The subject of assay [17] is CCRF-CEM.
Assay [18] has as its system K562.
Assay [19] deals with M14.
In assay [20] the test system is KM12.

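96-well plates; 48 h exposure; 5 concentrations. Endpoints by linear interpolation between flanking doses. Not reached: highest tested concentration assigned. Abbreviation: GI50, concentration required for 50% inhibition of growth.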 The source made the active and inactive calls. Cut-off read from the data, not from the text of the source: active = GI50 up to about 1.1 µM and inactive = higher.

On to `CN1CCN(C)C12C=c1ccccc1=CC21CC1`, for which the GI50 was 25.1 µM (inactive) in assay [1]; 18.6 µM (inactive) in [2]; 53.5 µM (inactive) in assay [3]; 30.8 µM (inactive) in [4]; > 100 µM (inactive) in assay [5]; > 91.4 µM (inactive) in [6]. For the same molecule, the GI50 is 24.3 µM (inactive) in assay [7]; 34.6 µM (inactive) in [8]; 3.02 µM (inactive) in assay [9]; 62.1 µM (inactive) in assay [10]; 68.7 µM (inactive) in [11]; > 91.4 µM (inactive) in assay [12]. The GI50 is 74.8 µM (inactive) in [13]; 19.3 µM (inactive) in assay [14]; 45.6 µM (inactive) in assay [15]; 45.1 µM (inactive) in [16]; 24.2 µM (inactive) in assay [17]; 22.8 µM (inactive) in [18]. The results for the GI50 in assay [19] and in assay [20] were 18.6 µM (inactive) and 29 µM (inactive), respectively.

As for `O=S(=O)(O)c1cc(/N=N/c2cc(S(=O)(=O)O)c3cccnc3c2O)ccc1/C=C/c1ccc(/N=N/c2cc(S(=O)(=O)O)c3cccnc3c2O)cc1S(=O)(=O)O`, the GI50 in assay [1] was > 89.1 µM (inactive); in assay [2] it was > 100 µM (inactive); in assay [3], > 100 µM (inactive); in [4], > 100 µM (inactive); in assay [5], > 100 µM (inactive); in [6] it was > 100 µM (inactive). Besides, the GI50 in assay [7] was > 100 µM (inactive); in assay [8], > 94.8 µM (inactive); in [9], 18.6 µM (inactive); in assay [10], > 100 µM (inactive); in assay [11] it was > 100 µM (inactive); in [12], > 100 µM (inactive). Besides, the GI50 in [13] was > 100 µM (inactive); in assay [14], > 100 µM (inactive); in assay [15], > 100 µM (inactive); in assay [16], > 100 µM (inactive); in assay [17], 18.3 µM (inactive); in [18], 34 µM (inactive). Moreover, the figures for the GI50 in assay [19] and in [20] were 63.2 µM (inactive) and > 100 µM (inactive), respectively.

Turning to `CC(C)C1=Cc2ccc3c(c2C(=O)C1=O)CCCC3`, the GI50 in [1] was 1.95 µM (inactive); in assay [2], 7.46 µM (inactive); in assay [3], 5.64 µM (inactive); in assay [4] it was 10.6 µM (inactive); in [5], 13.1 µM (inactive); in assay [6] it was 21.4 µM (inactive). Besides, the GI50 in assay [7] is 7.35 µM (inactive); in assay [8], 10.4 µM (inactive); in assay [9] it was 1.01 µM (active); in assay [10], 2.33 µM (inactive); in assay [11], 5.27 µM (inactive); in [12], 5.96 µM (inactive). For the same molecule, the GI50 in assay [13] is 3.49 µM (inactive); in [14] it was 2.9 µM (inactive); in assay [15] it was 2.05 µM (inactive); in assay [16], 0.227 µM (active); in [17], 0.65 µM (active); in [18] it was 2.44 µM (inactive). In addition, the GI50 in assay [19] was 5.11 µM (inactive); in [20] it was 17.1 µM (inactive).

Take `O=C1C2C3C=CC(C2C(=O)N1CN1CCOCC1)C1C2C(=O)N(CN4CCOCC4)C(=O)C2C31` (stereo not given): the GI50 is > 44.9 µM (inactive) in assay [1]; > 47 µM (inactive) in [2]; > 48.3 µM (inactive) in assay [3]; > 37.5 µM (inactive) in [4]; > 57.4 µM (inactive) in [5]; > 100 µM (inactive) in [6]. Besides, the GI50 in assay [7] is > 44 µM (inactive); in assay [8], > 43.5 µM (inactive); in assay [9], > 40.6 µM (inactive); in assay [10], > 55.7 µM (inactive); in assay [11], > 56 µM (inactive); in assay [12] it was > 56 µM (inactive). Moreover, the GI50 in [13] is > 53.3 µM (inactive); in assay [14], 22.9 µM (inactive); in assay [15], > 47.3 µM (inactive); in [16], > 100 µM (inactive); in assay [17], 18.7 µM (inactive); in assay [18] it was 25.8 µM (inactive). Further, the GI50 is > 42.9 µM (inactive) in assay [19] and > 44.7 µM (inactive) in assay [20].

For the origin of these results see ChEMBL document CHEMBL1201862, “PubChem BioAssay data set” (2004).
